Results reported in ChEMBL document CHEMBL5247641, “Discovery of Potent DYRK2 Inhibitors with High Selectivity, Great Solubility, and Excellent Safety Properties for the Treatment of Prostate Cancer” (J Med Chem, 2023).
pIC50: −log10 of the molar value. Active and inactive are the calls of the source. The calls are words filed in the database; no cut-off is given here.

Key:
[1] = molecular target: T1, Dual specificity tyrosine-phosphorylation-regulated kinase 2 (Homo sapiens, UniProt Q92630); assay: Inhibition of hexa His-tagged DYRK2 (72 to 479 residues) (unknown origin) expressed in Escherichia coli BL21 (DE3) assessed as substrate phosphorylation using 4E-BP1 as substrate in presence of [gamma33-P]ATP incubated for 2 hrs by scintillation counter analysis
T1 sequence (Q92630 whole entry): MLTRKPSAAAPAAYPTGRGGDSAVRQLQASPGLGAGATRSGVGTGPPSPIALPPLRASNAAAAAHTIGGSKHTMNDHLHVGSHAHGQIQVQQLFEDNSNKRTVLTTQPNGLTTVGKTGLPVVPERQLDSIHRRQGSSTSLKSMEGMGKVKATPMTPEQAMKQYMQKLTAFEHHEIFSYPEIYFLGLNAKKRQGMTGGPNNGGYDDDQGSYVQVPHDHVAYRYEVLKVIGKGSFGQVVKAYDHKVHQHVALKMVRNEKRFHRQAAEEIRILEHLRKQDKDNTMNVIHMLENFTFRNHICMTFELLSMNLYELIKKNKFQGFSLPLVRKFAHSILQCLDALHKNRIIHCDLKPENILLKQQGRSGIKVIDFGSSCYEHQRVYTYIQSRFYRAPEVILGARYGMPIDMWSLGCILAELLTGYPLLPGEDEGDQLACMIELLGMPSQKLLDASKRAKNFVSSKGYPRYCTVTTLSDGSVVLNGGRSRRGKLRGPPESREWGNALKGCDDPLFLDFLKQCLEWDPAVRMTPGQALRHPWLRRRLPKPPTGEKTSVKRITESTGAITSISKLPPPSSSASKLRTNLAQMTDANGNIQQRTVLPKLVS

DU-145 [2] = assay: Induction of cell cycle arrest in human DU-145 cells assessed as accumulation of cells at S phase at 40 uM incubated for 24 hrs by propidium iodide based flow cytometric analysis (Rvb= 29.02%); assay type: functional
CWR22R [3] = assay: Induction of apoptosis in human 22Rv1 cells assessed as apoptotis rate at 40 uM incubated for 24 hrs by Annexin V-FITC and PI staining based flow cytometry (Rvb= 3.08%); assay type: functional
DU-145 [4] = assay: Induction of cell cycle arrest in human DU-145 cells assessed as accumulation of cells at G1 phase at 40 uM incubated for 24 hrs by propidium iodide based flow cytometric analysis (Rvb= 53.46%); assay type: functional
DU-145 [5] = assay: Induction of cell cycle arrest in human DU-145 cells assessed as accumulation of cells at G2 phase at 40 uM incubated for 24 hrs by propidium iodide based flow cytometric analysis (Rvb= 17.52%); assay type: functional
CWR22R [6] = assay: Induction of cell cycle arrest in human 22Rv1 cells assessed as accumulation of cells at S phase at 40 uM incubated for 24 hrs by propidium iodide based flow cytometric analysis (Rvb=20.51 %); assay type: functional
CWR22R [7] = assay: Induction of cell cycle arrest in human 22Rv1 cells assessed as accumulation of cells at G1 phase at 40 uM incubated for 24 hrs by propidium iodide based flow cytometric analysis (Rvb= 55.28%); assay type: functional
DU-145 [8] = assay: Induction of apoptosis in human DU-145 cells assessed as apoptotis rate at 40 uM incubated for 24 hrs by Annexin V-FITC and PI staining based flow cytometry (Rvb= 4.36%); assay type: functional
CWR22R [9] = assay: Induction of cell cycle arrest in human 22Rv1 cells assessed as accumulation of cells at G2 phase at 40 uM incubated for 24 hrs by propidium iodide based flow cytometric analysis (Rvb=24.21 %); assay type: functional
DU-145 [10] = assay: Antitumor activity against human DU-145 xenografted in BALB/c nude mouse assessed as tumor growth inhibition at 100 mg/kg,po qd for 21 days; assay type: functional, organism-based; conditions: time 21.0 day
[11] = molecular target: T1, Dual specificity tyrosine-phosphorylation-regulated kinase 2; assay: Inhibition of human GST-tagged DYRK2 expressed in Escherichia coli BL21 (DE3) using woodtide as substrate in presence of [gamma33-P]ATP incubated for 30 mins by Scintillation counter analysis

Q: With `Cc1cnc(Nc2ccc(CN3CCN(C(=O)OC(C)(C)C)CC3)cn2)nc1-c1ccc2scnc2c1` as the compound, how does the pIC50 [1] read?
A: Its pIC50 is less than 5.00.

Q: Which Activity (DU-145 [2]) does the source give for `CNC(=O)c1ccc(N2C(=S)N(c3ccc(C#N)c(C(F)(F)F)c3)C(=O)C2(C)C)cc1F` [ENZALUTAMIDE] here?
A: The Activity was 26.54%.

Q: And the Activity (CWR22R [3])?
A: Its Activity is 5.85%.

Q: And the Activity (DU-145 [4])?
A: The Activity was 56.68%.

Q: What about the Activity (DU-145 [5]) of the same compound?
A: Its Activity is 16.78%.

Q: And the Activity (CWR22R [6])?
A: The Activity was 15.68%.

Q: And the Activity (CWR22R [7])?
A: Its Activity is 62.89%.

Q: What about the Activity (DU-145 [8]) of the same compound?
A: The Activity was 8.01%.

Q: What about the Activity (CWR22R [9]) of the same compound?
A: The Activity was 21.43%.

Q: What about the Activity (DU-145 [10]) of the same compound?
A: The Activity was “Active”.

Q: How did the pIC50 [1] turn out when `CC(C)(C)OC(=O)N1CCN(C(=O)c2ccc(Nc3ncc(F)c(-c4ccc5scnc5c4)n3)cn2)CC1` was run?
A: Its pIC50 is 7.80.

Q: `COc1cnc(Nc2ccc(CN3CCN(C(=O)OC(C)(C)C)CC3)cn2)nc1-c1ccc2scnc2c1` was tested. Which pIC50 [1] did it give?
A: The pIC50 was less than 5.00.

Q: `COc1cc(/C=C/C(=O)CC(=O)/C=C/c2ccc(O)c(OC)c2)ccc1O` [CURCUMIN] was tested. Which pIC50 [11] did it give?
A: The pIC50 was 8.60.

Q: How did the pIC50 [1] turn out when `CC(C)(C)OC(=O)N1CCN(Cc2ccc(Nc3nccc(-c4ccc5scnc5c4)n3)nc2)CC1` was run?
A: The pIC50 was less than 5.00.

Q: With `O=C(c1ccc(Nc2ncc(F)c(-c3ccc4scnc4c3)n2)nc1)N1CCN(C(=O)C2CC2)CC1` as the compound, how does the pIC50 [1] read?
A: The pIC50 was 7.48.

Q: With `CC(C)(C)OC(=O)N1CCN(Cc2ccc(Nc3ncc(F)c(-c4ccc5scnc5c4)n3)nc2)CC1` as the compound, how does the pIC50 [1] read?
A: Its pIC50 is less than 5.00.
